Patent publication US20150126467A1, “USE OF ALGINATE OLIGOMERS TO ENHANCE THE EFFECTS OF ANTIFUNGAL AGENTS” (AlgiIPharma AS, priority 2011, published 2015)
≈ marks a conversion by molar mass, not a printed value. Where two headings read alike, the source gives them in different places.

Key:
[1] = system: C. parapsillosis ATCC 22019T; assay: Robotic MIC assay, Candida strains (Example 2); assay type: cell-based, Candida parapsilosis; details: Lodderomyces parapsilosis, ATCC22019, 48 h, Mueller-Hinton broth, read-out: Minimum Inhibitory Concentration (MIC)
Description: (§1) A robotic MIC Assay was performed as follows. OligoG CF-5/20 were dissolved in medium (Mueller-Hinton broth or M19 broth depending on experiment) to 1.25 times of the desired assay concentrations (2, 6 and 10%). The antifungal agents under test were dissolved in medium without OligoG CF-5/20 and in medium with OligoG CF-5/20 at a concentration of 1.25 times the highest desired assay concentrations. For experiments where the effect of adding different concentrations of Na^+ was investigated, NaCl was dissolved in medium to the desired concentrations (10, 30 and 50 mM).
(§2) Two-fold serial dilutions of antifungal agents were made in medium with different concentrations of OligoG CF-5/20, and the solutions were placed in four parallel wells in Nunc 384-well micro plates (30 μl per well in Nunc 242757 microplates). A group of 8 wells with no addition of antifungal agents for each OligoG CF-5/20 concentration was included on each microplate as growth reference. To each well in the 384-well assay plates was added 7.5 μl of medium inoculated with a frozen stock culture of Candida albicans (strain CCUG 39343).
(§3) The micro plates were placed in plastic bags and incubated without shaking at 34° C. The optical density at 600 nm in the microwells was measured after approximately 13, 18, 24 and 34 hours of incubation, and the relative growth yield in each well was calculated based on the growth in the reference groups.
(§4) The robotic assay described in Example 1 was employed in this Example. Strains were grown in Mueller-Hinton broth (LAB114 from Lab M Limited) and MIC values (μg ml-1) were determined for each antifungal after incubation for 48 h in the presence of 0, 2, 6 and 10% OligoG CF-5/20 G-fragments. […] OligoG CF-5/20 G-fragments were provided by AlgiPharma AS, Norway.
(§5) Candida strains used were as follows: • C. albicans CCUG 39343 (strain from culture collection) • C. parapsillosis ATCC 22019T (strain from culture collection) • C. krusei 141/03 (candidosis) • C. krusei 249/03(2) (ulceration) • C. lusitaniae 994/01(2) (candidosis) • C. tropicalis 12 (vaginal) • C. tropicalis 75 (vaginal) • C. tropicalis 519468 (urinary) • C. tropicalis 544123 (urinary) • C. tropicalis 250/03 (candidosis) • C. tropicalis AG1 (oral) • C. tropicalis T2.2 (oral)

[2] = system: Cryptococcus neoformans CCUG 23451; assay: Robotic MIC assay, Cryptococcus neoformans (Example 6); assay type: cell-based; details: for MIC: Cryptococcus neoformans, read-out: Minimum Inhibitory Concentration (MIC)
Description: Cryptococcus sp. was grown at 30° C. for 96 h on YM-agar. Spores and aerial mycelium was cut out from the agar, suspended in 1 ml YM-broth and dispersed with glass beads (1 mm) in a mini bead beater for 2 min. The suspension was added glycerol to 10% and frozen at −80° C. Each batch of frozen stock culture was then characterized in separate growth experiments using Mueller-Hinton and RPMI to determine the minimum amount of inoculum giving satisfactory growth after 48 h under the conditions relevant for the MIC assay. This inoculum procedure is used in order to reduce day to day variation in bioassays.
Robotic minimum inhibitory concentration (MIC) assay was performed as follows. OligoG CF-5/20 was dissolved in medium (Mueller-Hinton, RPMI with 2% glucose, Sabouraud or YM) to 1.25 times of the desired assay concentrations (2, 6 and 10%). […].
Two-fold serial dilutions of antifungal agents were made in medium with different concentrations of OligoG CF-5/20, and the solutions were placed in four parallel wells in Nunc 384-well micro plates (30 μl per well in Nunc 242757 microplates). A group of 8 wells with no addition of antifungal agents for each OligoG CF-5/20 concentration was included on each micro plate as growth reference. Each well in the 384-well assay plates was added 7.5 μl of the medium innoculated with frozen stock culture of the relevant strains.
The microplates were placed in plastic bags and incubated without shaking at 34° C. The optical density at 600 nm in the microwells was measured after certain time points from 24 h to 96 h of incubation. […]

[3] = system: C. tropicalis 250/03 (candidosis); assay: Robotic MIC assay, Candida strains (Example 2); assay type: cell-based; details: Candida tropicalis, 48 h, C. tropicalis 250/03 Candiosis, Mueller-Hinton broth, read-out: Minimum Inhibitory Concentration (MIC)
Description: as §1, §2, §3, §4, §5

[4] = system: C. krusei 141/03 (candidosis); assay: Robotic MIC assay, Candida strains (Example 2); assay type: cell-based; details: Pichia kudriavzevii, 48 h, Mueller-Hinton broth, read-out: Minimum Inhibitory Concentration (MIC)
Description: as §1, §2, §3, §4, §5

[5] = system: C. tropicalis T2.2 (oral); assay: Robotic MIC assay, Candida strains (Example 2); assay type: cell-based; details: Candida tropicalis, 48 h, Mueller-Hinton broth, read-out: Minimum Inhibitory Concentration (MIC)
Description: as §1, §2, §3, §4, §5

[6] = system: C. tropicalis 12 (vaginal); assay: Robotic MIC assay, Candida strains (Example 2); assay type: cell-based; details: Candida tropicalis, 48 h, Mueller-Hinton broth, read-out: Minimum Inhibitory Concentration (MIC)
Description: as §1, §2, §3, §4, §5

[7] = system: C. tropicalis 544123 (urinary); assay: Robotic MIC assay, Candida strains (Example 2); assay type: cell-based; details: Candida tropicalis, 48 h, Mueller-Hinton broth, read-out: Minimum Inhibitory Concentration (MIC)
Description: as §1, §2, §3, §4, §5

C. tropicalis AG1 (oral) = assay: Robotic MIC assay, Candida strains (Example 2); assay type: cell-based; details: Candida tropicalis, 48 h, Mueller-Hinton broth, read-out: Minimum Inhibitory Concentration (MIC)
Description: as §1, §2, §3, §4, §5

[8] = system: C. tropicalis 75 (vaginal); assay: Robotic MIC assay, Candida strains (Example 2); assay type: cell-based; details: Candida tropicalis, 48 h, Mueller-Hinton broth, read-out: Minimum Inhibitory Concentration (MIC)
Description: as §1, §2, §3, §4, §5

[9] = system: C. tropicalis 519468 (urinary); assay: Robotic MIC assay, Candida strains (Example 2); assay type: cell-based; details: Candida tropicalis, 48 h, Mueller-Hinton broth, read-out: Minimum Inhibitory Concentration (MIC)
Description: as §1, §2, §3, §4, §5

SMILES: OC(Cn1cncn1)(Cn1cncn1)c1ccc(F)cc1F [Fluconazole, fluconazole]
- MIC ([1]; 0% OligoG): 2 µg/mL (≈ 6.53 µM)
- MIC ([1]; 2% OligoG): 2 µg/mL (≈ 6.53 µM)
- MIC ([1]; 6% OligoG): 0.5 µg/mL (≈ 1.63 µM)
- MIC ([1]; 10% OligoG): 0.25 µg/mL (≈ 0.816 µM)
- MIC ([2]; CCUG23451, 72 h, RPMI 2% GLU, 0% OligoG, 72 hours): 2 µg/mL (≈ 6.53 µM)
- MIC ([2]; CCUG23451, 72 h, RPMI 2% GLU, 2% OligoG, 72 hours): 1 µg/mL (≈ 3.27 µM)
- MIC ([2]; CCUG23451, 72 h, RPMI 2% GLU, 6% OligoG, 72 hours): 0.5 µg/mL (≈ 1.63 µM)
- MIC ([2]; CCUG23451, 72 h, Sabouraud, 0% OligoG, 72 hours): 1 µg/mL (≈ 3.27 µM)
- MIC ([2]; CCUG23451, 72 h, Sabouraud, 2% OligoG, 72 hours): 0.5 µg/mL (≈ 1.63 µM)
- MIC ([2]; CCUG23451, 72 h, Sabouraud, 6% OligoG, 72 hours): 0.5 µg/mL (≈ 1.63 µM)
- MIC ([2]; CCUG23451, 72 h, YM, 0% OligoG, 72 hours): 1 µg/mL (≈ 3.27 µM)
- MIC ([2]; CCUG23451, 72 h, YM, 2% OligoG, 72 hours): 0.5 µg/mL (≈ 1.63 µM)
- MIC ([2]; CCUG23451, 96 h, MH, 0% OligoG, 96 hours): 2 µg/mL (≈ 6.53 µM)
- MIC ([2]; CCUG23451, 96 h, MH, 2% OligoG, 96 hours): 0.5 µg/mL (≈ 1.63 µM)
- MIC ([2]; CCUG23451, 96 h, RPMI 2% GLU, 0% OligoG, 96 hours): 2 µg/mL (≈ 6.53 µM)
- MIC ([2]; CCUG23451, 96 h, RPMI 2% GLU, 2% OligoG, 96 hours): 1 µg/mL (≈ 3.27 µM)
- MIC ([2]; CCUG23451, 96 h, RPMI 2% GLU, 6% OligoG, 96 hours): 1 µg/mL (≈ 3.27 µM)
- MIC ([2]; CCUG23451, 96 h, RPMI 2% GLU, 10% OligoG, 96 hours): 1 µg/mL (≈ 3.27 µM)
- MIC ([2]; CCUG23451, 96 h, Sabouraud, 0% OligoG, 96 hours): 1 µg/mL (≈ 3.27 µM)
- MIC ([2]; CCUG23451, 96 h, Sabouraud, 2% OligoG, 96 hours): 0.5 µg/mL (≈ 1.63 µM)
- MIC ([2]; CCUG23451, 96 h, Sabouraud, 6% OligoG, 96 hours): 0.5 µg/mL (≈ 1.63 µM)
- MIC ([2]; CCUG23451, 96 h, YM, 0% OligoG, 96 hours): 1 µg/mL (≈ 3.27 µM)
- MIC ([2]; CCUG23451, 96 h, YM, 2% OligoG, 96 hours): 1 µg/mL (≈ 3.27 µM)
- effect on MIC when OligoG is added to the medium ([2]; media: RPMI with 2% glucose, MH, Sabouraud, YM): reduction in MIC in all media tested
- MIC ([3]; 0% OligoG): 8 µg/mL (≈ 26.1 µM)
- MIC ([3]; 2% OligoG): 4 µg/mL (≈ 13.1 µM)
- MIC ([3]; 6% OligoG): 2 µg/mL (≈ 6.53 µM)
- MIC ([3]; 10% OligoG): 2 µg/mL (≈ 6.53 µM)
- MIC ([4]; 0% OligoG): 128 µg/mL (≈ 418 µM)
- MIC ([4]; 2% OligoG): 64 µg/mL (≈ 209 µM)
- MIC ([4]; 6% OligoG): 64 µg/mL (≈ 209 µM)
- MIC ([4]; 10% OligoG): 64 µg/mL (≈ 209 µM)
- MIC ([5]; 0% OligoG): > 128 µg/mL
- MIC ([5]; 2% OligoG): 0.5 µg/mL (≈ 1.63 µM)
- MIC ([5]; 6% OligoG): 0.25 µg/mL (≈ 0.816 µM)
- MIC ([5]; 10% OligoG): < 0.125 µg/mL
- MIC ([6]; 0% OligoG): 1 µg/mL (≈ 3.27 µM)
- MIC ([6]; 2% OligoG): 1 µg/mL (≈ 3.27 µM)
- MIC ([6]; 6% OligoG): < 0.125 µg/mL
- MIC ([6]; 10% OligoG): < 0.125 µg/mL
- MIC ([7]; 0% OligoG): 1 µg/mL (≈ 3.27 µM)
- MIC ([7]; 2% OligoG): 1 µg/mL (≈ 3.27 µM)
- MIC ([7]; 6% OligoG): 0.5 µg/mL (≈ 1.63 µM)
- MIC ([7]; 10% OligoG): 0.25 µg/mL (≈ 0.816 µM)
- MIC (C. tropicalis AG1 (oral); 0% OligoG): 128 µg/mL (≈ 418 µM)
- MIC (C. tropicalis AG1 (oral); 2% OligoG): > 128 µg/mL
- MIC (C. tropicalis AG1 (oral); 6% OligoG): 0.5 µg/mL (≈ 1.63 µM)
- MIC (C. tropicalis AG1 (oral); 10% OligoG): 0.125 µg/mL (≈ 0.408 µM)
- MIC ([8]; 0% OligoG): 2 µg/mL (≈ 6.53 µM)
- MIC ([8]; 2% OligoG): 1 µg/mL (≈ 3.27 µM)
- MIC ([8]; 6% OligoG): 0.5 µg/mL (≈ 1.63 µM)
- MIC ([8]; 10% OligoG): 0.25 µg/mL (≈ 0.816 µM)
- MIC ([9]; 0% OligoG): 128 µg/mL (≈ 418 µM)
- MIC ([9]; 2% OligoG): 1 µg/mL (≈ 3.27 µM)
- MIC ([9]; 6% OligoG): 0.5 µg/mL (≈ 1.63 µM)
- MIC ([9]; 10% OligoG): 0.25 µg/mL (≈ 0.816 µM)
